# Reference: article PMC4594035, “Xenopus borealis as an alternative source of oocytes for biophysical and pharmacological studies of neuronal ion channels” (Scientific Reports, 2015)
# Like-named read-outs stand apart in the source and are kept apart here. Bridge positions count the residues as written; N and C are the ends. Ends that are not written are not given here.
# What was measured:
# [1] = target: α5β2γ2L GABAAR (Homo sapiens, UniProt P31644+P47870); test: GABA activation of α5β2γ2L GABAAR, two-electrode voltage-clamp in Xenopus oocytes; type: cell-based; settings: n = 9–10; for Slope (Hill coefficient): mean
# α5β2γ2L GABAAR, sequence (P31644 32-462): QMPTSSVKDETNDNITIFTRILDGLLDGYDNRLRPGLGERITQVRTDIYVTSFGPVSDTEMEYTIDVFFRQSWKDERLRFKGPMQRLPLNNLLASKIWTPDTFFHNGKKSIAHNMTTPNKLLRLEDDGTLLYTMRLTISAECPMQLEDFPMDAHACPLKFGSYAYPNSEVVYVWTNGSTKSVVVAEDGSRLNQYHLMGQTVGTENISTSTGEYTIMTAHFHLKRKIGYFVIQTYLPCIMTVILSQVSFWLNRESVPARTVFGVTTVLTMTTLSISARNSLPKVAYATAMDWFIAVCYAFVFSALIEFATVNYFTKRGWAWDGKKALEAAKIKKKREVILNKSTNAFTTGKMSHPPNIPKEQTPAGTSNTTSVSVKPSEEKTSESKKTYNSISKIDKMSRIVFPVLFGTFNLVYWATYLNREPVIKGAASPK
# α5β2γ2L GABAAR, sequence (P47870 26-512): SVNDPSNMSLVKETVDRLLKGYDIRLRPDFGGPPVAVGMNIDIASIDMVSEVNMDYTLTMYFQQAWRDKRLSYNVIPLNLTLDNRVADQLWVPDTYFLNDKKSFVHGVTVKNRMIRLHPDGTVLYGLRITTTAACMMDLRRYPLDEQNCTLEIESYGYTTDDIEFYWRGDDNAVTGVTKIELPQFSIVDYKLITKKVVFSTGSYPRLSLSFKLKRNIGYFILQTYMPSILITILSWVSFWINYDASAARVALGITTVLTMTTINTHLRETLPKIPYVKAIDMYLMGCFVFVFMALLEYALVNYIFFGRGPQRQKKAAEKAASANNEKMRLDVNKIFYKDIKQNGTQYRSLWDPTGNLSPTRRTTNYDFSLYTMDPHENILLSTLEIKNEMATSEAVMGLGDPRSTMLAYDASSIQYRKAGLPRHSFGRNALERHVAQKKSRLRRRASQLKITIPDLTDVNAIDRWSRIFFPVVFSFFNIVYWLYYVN
# α5β2γ2L GABAAR, sequence (P18507 40-475 partner): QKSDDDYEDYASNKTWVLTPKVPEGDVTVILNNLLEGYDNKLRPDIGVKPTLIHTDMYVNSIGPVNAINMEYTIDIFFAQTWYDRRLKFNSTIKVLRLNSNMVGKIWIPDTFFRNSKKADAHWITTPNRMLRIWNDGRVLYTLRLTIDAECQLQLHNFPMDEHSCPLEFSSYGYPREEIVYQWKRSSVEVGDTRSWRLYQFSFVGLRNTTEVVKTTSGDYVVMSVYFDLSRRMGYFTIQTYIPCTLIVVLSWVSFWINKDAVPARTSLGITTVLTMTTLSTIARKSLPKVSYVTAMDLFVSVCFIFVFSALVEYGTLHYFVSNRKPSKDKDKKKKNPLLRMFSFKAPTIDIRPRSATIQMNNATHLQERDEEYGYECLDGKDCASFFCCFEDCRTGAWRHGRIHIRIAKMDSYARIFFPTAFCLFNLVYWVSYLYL
# Experimental: (§1) X. laevis (Xenopus Express) and X. borealis (Nasco) oocytes were surgically removed from anaesthetised (Tricaine methanesulfonate, MS-222) female frogs and treated with collagenase (1 mg/ml; Sigma type I) for defolliculation. cRNAs were synthesised using an mMessage mMachine cRNA transcription kit (Ambion Inc., Austin, TX, USA) and injected into stage V–VI oocytes at 4–200 ng per cell. Oocytes were stored at 17 °C in ND96 solution (96 mM NaCl, 1.8 mM CaCl2, 2 mM KCl, 2 mM MgCl2, 5 mM HEPES, pH 7.4) supplemented with 2.5 mM pyruvic acid, 50 μg/mL gentamicin, and either 2.5% horse serum or 0.5 mM theophylline. Membrane currents were recorded 2–10 days after injection under voltage-clamp (Axoclamp 900A or Geneclamp 500B, Molecular Devices, CA, USA) using two standard glass microelectrodes of 0.5–2 MΩ resistance when filled with 3 M KCl solution. Data acquisition and analysis were performed using pCLAMP software (Version 9.2 or 10, Molecular Devices, Sunnyvale, CA, USA). All experiments were performed at room temperature (18–21 °C) in ND96 solution. Experiments containing peptides were performed in ND96 solution containing 0.1% fatty acid free-bovine serum albumin (Sigma). Recordings were performed as previously described for ASICs[30][31], GABAAR[32][33], GlyR[34], KV[6][8][35], and NaV[36] channels.
# (§2) All data were analysed using Prism 6.0 (GraphPad Software, San Diego, CA, USA). The Hill equation was fitted to normalised concentration-response curves to obtain the half-maximal response (EC50, IC50, or pH50) and Hill coefficient (nH). Voltage-dependent activation curves were fit with the Boltzmann equation to obtain the V0.5 (the voltage corresponding to half-maximal effect). Data are shown as mean and 95% confidence intervals, and n represents the number of oocytes for a given experiment (taken from at least three different frogs). […] For both t-tests, it was assumed data was sampled from Gaussian populations, and P values were calculated from two-tailed tests. […]
# [2] = target: α1β2γ2L GABAAR (Homo sapiens, UniProt P14867+P47870); test: GABA activation of α1β2γ2L GABAAR, two-electrode voltage-clamp in Xenopus oocytes; type: cell-based; settings: n = 9–10; for Slope (Hill coefficient): mean
# α1β2γ2L GABAAR, sequence (P14867 28-456): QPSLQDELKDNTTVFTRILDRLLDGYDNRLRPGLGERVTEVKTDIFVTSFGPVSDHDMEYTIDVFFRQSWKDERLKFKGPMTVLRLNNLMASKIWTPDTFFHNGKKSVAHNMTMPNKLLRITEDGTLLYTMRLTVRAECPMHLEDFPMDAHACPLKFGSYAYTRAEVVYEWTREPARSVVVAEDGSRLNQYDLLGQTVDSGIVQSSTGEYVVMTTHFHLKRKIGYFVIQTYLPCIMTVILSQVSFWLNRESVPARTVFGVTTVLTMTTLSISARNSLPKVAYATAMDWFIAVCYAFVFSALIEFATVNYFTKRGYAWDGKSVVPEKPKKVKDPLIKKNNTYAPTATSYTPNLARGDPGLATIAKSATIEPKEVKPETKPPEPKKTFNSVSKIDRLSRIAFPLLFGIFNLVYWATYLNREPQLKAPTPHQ
# α1β2γ2L GABAAR, sequence (P47870 26-512): as the sequence (P47870 26-512) above
# α1β2γ2L GABAAR, sequence (P18507 40-475 partner): as the sequence (P18507 40-475 partner) above
# Experimental: as §1, §2
# [3] = target: α5β3γ2L GABAAR (Homo sapiens, UniProt P28472+P31644); test: GABA activation of α5β3γ2L GABAAR, two-electrode voltage-clamp in Xenopus oocytes; type: cell-based; settings: n = 9–10; for Slope (Hill coefficient): mean
# α5β3γ2L GABAAR, sequence (P31644 32-462): as the sequence (P31644 32-462) above
# α5β3γ2L GABAAR, sequence (P28472 26-473): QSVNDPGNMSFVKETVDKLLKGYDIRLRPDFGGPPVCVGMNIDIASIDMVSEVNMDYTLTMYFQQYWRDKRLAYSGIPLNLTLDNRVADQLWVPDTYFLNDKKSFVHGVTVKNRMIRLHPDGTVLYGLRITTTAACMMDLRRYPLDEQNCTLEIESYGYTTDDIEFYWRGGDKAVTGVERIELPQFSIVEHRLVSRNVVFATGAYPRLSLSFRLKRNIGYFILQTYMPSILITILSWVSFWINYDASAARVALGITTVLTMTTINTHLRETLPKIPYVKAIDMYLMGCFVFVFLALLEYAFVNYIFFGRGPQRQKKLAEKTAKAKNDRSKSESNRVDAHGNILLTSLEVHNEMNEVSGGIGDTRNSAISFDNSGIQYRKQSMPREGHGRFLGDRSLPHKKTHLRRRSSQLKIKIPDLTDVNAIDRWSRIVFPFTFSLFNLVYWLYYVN
# α5β3γ2L GABAAR, sequence (P18507 40-475 partner): as the sequence (P18507 40-475 partner) above
# Experimental: as §1, §2
# [4] = tested on: α1N203C GlyR; settings: for ΔFmax (maximal fluorescence change) / ΔImax (maximal current change) / Slope, ΔF / Slope, ΔI / EC50: MTS-TAMRA labelled, mean ± s.e.m.; for Slope, ΔF / Slope, ΔI / EC50: n = 4–6; for EC50: −40 mV
# From the text: (§3) This technique permits the real time monitoring of conformational changes in ion channel domains distant from the gate. It involves introducing a cysteine into the ion channel domain of interest and covalently labelling it with a sulfhydryl-reactive rhodamine derivative such as MTSR. As the quantum efficiency of the rhodamine depends on the hydrophobicity of its environment, protein conformational changes occurring in the immediate vicinity of the attached fluorophore are likely to change the hydrophobicity of its environment and thus produce a fluorescence change. […] Conformational changes at the channel gate are monitored simultaneously using two-electrode voltage-clamp. For these recordings, DNA encoding the α1 GlyR subunit was subcloned into pGEMHE, a plasmid vector optimised for oocyte expression. […] Both sites have previously been characterised extensively using voltage-clamp fluorometry. A C41A mutation was incorporated into the α1 GlyR to eliminate the sole non-crosslinked extracellular sulfhydryl group. Site directed mutagenesis was performed using the QuikChange mutagenesis kit (Stratagene).
# (§4) On the day of recording, oocytes were transferred into ND96 and stored on ice. For a subset of experiments, a modified version of the previously described approach[39] for vitelline membrane disruption and removal was performed by incubating oocytes in ND96 containing 0.5 mg/ml protease (protease type VIII from Bacillus licheniformis, Sigma-Aldrich) for 1–1.5 min before labelling. Following this, a sequential wash step was performed by transferring oocytes into fresh ND96 solution five consecutive times. To label with either MTSR or MTS-TAMRA (Toronto Research Chemicals), oocytes were transferred into labelling solution containing 10 μM of either compound in ND96 for 25 s. The oocytes were then washed and stored in ND96 for up to 6 h before recording. All labelling steps were performed on ice.
# (§5) We recently described the experimental set up in detail. Briefly, we employed an inverted microscope (Eclipse TE300, Nikon Instruments) equipped with a high-Q tetramethylrhodamine isothiocyanate filter set (Chroma Technology), a Plan Fluor X40 objective (Nikon Instruments) and an H7360-03 photomultiplier detection system (Hamamatsu Photonics) attached to the side port of the microscope. An excitation filter wheel including a shutter and emission filter wheel were controlled through a Lambda 10-2 unit (Sutter Instruments). A Lambda LS 175 W xenon arc lamp served as a light source and was coupled to the microscope via a liquid light guide (Sutter Instruments). The design of the custom-made recording chamber has been described. An automated perfusion system operated by a ValveBank-8 valve controller (AutoMate Scientific) was used for perfusion of the recording chamber. Electrodes were moved by automated ROE-200 micromanipulators coupled to an MPC-200 controller (Sutter Instruments). Cells were voltage-clamped at −40 mV and currents recorded using a Gene Clamp 500B amplifier (Molecular Devices). Current and fluorescence traces were acquired at 200 Hz via a Digidata 1322A interface and pCLAMP 9.2 software.
# (§6) All data were analysed using Prism 6.0 (GraphPad Software, San Diego, CA, USA). The Hill equation was fitted to normalised concentration-response curves to obtain the half-maximal response (EC50, IC50, or pH50) and Hill coefficient (nH). Voltage-dependent activation curves were fit with the Boltzmann equation to obtain the V0.5 (the voltage corresponding to half-maximal effect). Data are shown as mean and 95% confidence intervals, and n represents the number of oocytes for a given experiment (taken from at least three different frogs). Most equivalence testing comparing X. laevis and X. borealis oocytes was performed using an unpaired Student’s t-test with 95% confidence intervals.
# [5] = tested on: α1R271C GlyR; settings: MTSR labelled, mean ± s.e.m.; for Slope, ΔF / Slope, ΔI / EC50: n = 4–6; for EC50: −40 mV
# From the text: as §3, §4, §5, §6
# [6] = tested on: NaV1.2; test: Inhibition of NaV1.2 by ProTx-I, two-electrode voltage-clamp in Xenopus oocytes; type: cell-based; settings: 300 nM ProTx-I; depolarisation to –15 mV from holding potential −80 mV; n = 8–9; Fig. 3f; P > 0.05
# Experimental: as §1, with “Recordings were performed as previously described for ASICs[30][31], GABAAR[32][33], GlyR[34], KV[6][8][35], and NaV[36] channels.” left out
# (§7) All data were analysed using Prism 6.0 (GraphPad Software, San Diego, CA, USA). […] For both t-tests, it was assumed data was sampled from Gaussian populations, and P values were calculated from two-tailed tests. […]
# [7] = tested on: NaV1.5; test: Inhibition of NaV1.5 by ProTx-I, two-electrode voltage-clamp in Xenopus oocytes; type: cell-based; settings: 300 nM ProTx-I; depolarisation to –15 mV from holding potential −80 mV; n = 8–9; Fig. 3f; P > 0.05
# Experimental: as §1, with “Recordings were performed as previously described for ASICs[30][31], GABAAR[32][33], GlyR[34], KV[6][8][35], and NaV[36] channels.” left out
# as §7
# [8] = tested on: NaV channel; settings: cited from earlier work
# Experimental: Two-electrode voltage-clamp electrophysiology recordings were performed to compare the properties of a panel of KV and voltage-gated sodium (NaV) channels heterologously expressed in X. laevis and X. borealis oocytes. […] Conductance-voltage relationship curves obtained for NaV1.2 (Fig. 3c), NaV1.5 (Fig. 3d), and NaV1.7 (Fig. 3e) overlap ...
# [9] = tested on: NaV1.7; test: Inhibition of NaV1.7 by ProTx-I, two-electrode voltage-clamp in Xenopus oocytes; type: cell-based; settings: 300 nM ProTx-I; depolarisation to –15 mV from holding potential −80 mV; n = 8–9; Fig. 3f; P > 0.05
# Experimental: as §1, with “Recordings were performed as previously described for ASICs[30][31], GABAAR[32][33], GlyR[34], KV[6][8][35], and NaV[36] channels.” left out
# as §7
# [10] = target: T1, rat ASIC3 (Rattus norvegicus, UniProt O35240); test: Inhibition of rat ASIC3 by APETx2, two-electrode voltage-clamp in Xenopus oocytes; type: cell-based; settings: ND96 with 0.1% fatty acid free-bovine serum albumin, 18–21 °C, mean, n = 9, Supplementary Table S3, read-out: IC50 (half-maximal response)
# T1 construct: expressed in transfected cells; host or cells: Xenopus laevis and Xenopus borealis oocytes (cRNA injection)
# T1 sequence (O35240 1-533): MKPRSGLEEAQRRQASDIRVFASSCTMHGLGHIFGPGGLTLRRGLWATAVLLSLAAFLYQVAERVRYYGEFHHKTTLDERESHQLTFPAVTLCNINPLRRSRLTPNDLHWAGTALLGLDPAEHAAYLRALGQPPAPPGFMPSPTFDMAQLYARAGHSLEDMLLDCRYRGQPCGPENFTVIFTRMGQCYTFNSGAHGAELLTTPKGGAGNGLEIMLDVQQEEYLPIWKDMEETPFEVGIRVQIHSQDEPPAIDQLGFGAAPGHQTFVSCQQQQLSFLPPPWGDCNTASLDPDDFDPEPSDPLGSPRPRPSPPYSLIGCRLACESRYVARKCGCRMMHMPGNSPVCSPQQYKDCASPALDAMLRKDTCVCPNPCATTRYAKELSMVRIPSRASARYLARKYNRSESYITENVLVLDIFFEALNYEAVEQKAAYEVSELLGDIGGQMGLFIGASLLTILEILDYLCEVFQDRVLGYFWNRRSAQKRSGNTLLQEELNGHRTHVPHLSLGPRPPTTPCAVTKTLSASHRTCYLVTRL
# Experimental: as §1, with “Recordings were performed as previously described for ASICs[30][31], GABAAR[32][33], GlyR[34], KV[6][8][35], and NaV[36] channels.” left out
# as §7
# [11] = X. laevis compared with X. borealis oocytes
# [12] = read-out: EC50, ΔF (glycine-induced fluorescence change), X. laevis oocytes
# [13] = read-out: EC50, ΔI (glycine-induced current), X. borealis oocytes
# [14] = read-out: EC50, ΔI (glycine-induced current), X. laevis oocytes
molecule,measurement,setting,value
"NCCCC(=O)O [GABA, γ-aminobutyric acid]",Slope (Hill coefficient),[1]; X. borealis oocytes,0.74
same,"Concentration-effect curves for GABA activation, X. laevis vs X. borealis",[1]; [11],no difference in the concentration-effect curves
same,Slope (Hill coefficient),[1]; X. laevis oocytes,0.49
same,Slope (Hill coefficient),[2]; X. borealis oocytes,0.60
same,"Concentration-effect curves for GABA activation, X. laevis vs X. borealis",[2]; [11],no difference in the concentration-effect curves
same,Slope (Hill coefficient),[2]; X. laevis oocytes,0.56
same,Slope (Hill coefficient),[3]; X. borealis oocytes,0.93
same,"Concentration-effect curves for GABA activation, X. laevis vs X. borealis",[3]; [11],no difference in the concentration-effect curves
same,Slope (Hill coefficient),[3]; X. laevis oocytes,0.75
NCC(=O)O [glycine],ΔF after 1 min protease treatment vs untreated oocytes,"[4]; 10 μM glycine, protease (type VIII, 0.5 mg/ml) 1 min before labelling, n = 7, Fig. 5b","A significant increase in ΔF was obtained after 1 min treatment with protease for X. borealis, but not X. laevis, oocytes"
same,ΔFmax (maximal fluorescence change),[4]; X. borealis oocytes,27.8 ± 4.4%
same,ΔImax (maximal current change),[4]; X. borealis oocytes,8.0 ± 0.8 µA
same,"Slope, ΔF",[4]; X. borealis oocytes,1.8 ± 0.1
same,"Slope, ΔI",[4]; X. borealis oocytes,1.5 ± 0.1
same,ΔFmax (maximal fluorescence change),[4]; X. laevis oocytes,25.9 ± 4.2%
same,ΔImax (maximal current change),[4]; X. laevis oocytes,8.4 ± 0.2 µA
same,"Slope, ΔF",[4]; X. laevis oocytes,1.4 ± 0.2
same,"Slope, ΔI",[4]; X. laevis oocytes,1.9 ± 0.2
same,EC50,[4]; [12],548 ± 25 µM
same,EC50,[4]; [13],136 ± 8.7 µM
same,EC50,[4]; [14],145 ± 10 µM
same,ΔFmax (maximal fluorescence change),[5]; X. borealis oocytes,9.0 ± 2.2%
same,ΔImax (maximal current change),[5]; X. borealis oocytes,2.7 ± 0.5 µA
same,"Slope, ΔF",[5]; X. borealis oocytes,1.0 ± 0.1
same,"Slope, ΔI",[5]; X. borealis oocytes,2.0 ± 0.2
same,ΔFmax (maximal fluorescence change),[5]; X. laevis oocytes,12.2 ± 2.2%
same,ΔImax (maximal current change),[5]; X. laevis oocytes,3.4 ± 1.7 µA
same,"Slope, ΔF",[5]; X. laevis oocytes,1.3 ± 0.2
same,"Slope, ΔI",[5]; X. laevis oocytes,1.4 ± 0.2
same,EC50,"[5]; read-out: EC50, ΔF (glycine-induced fluorescence change), X. borealis oocytes",1010 ± 98 µM
same,EC50,[5]; [12],872 ± 58 µM
same,EC50,[5]; [13],1700 ± 104 µM
same,EC50,[5]; [14],1930 ± 175 µM
ProTx-I,"Inhibition by ProTx-I, X. laevis vs X. borealis",[6],Comparable levels of inhibition between species
same,"Inhibition by ProTx-I, X. laevis vs X. borealis",[7],Comparable levels of inhibition between species
same,NaV channel inhibition,[8],potent and non-selective NaV channel inhibitor
same,"Inhibition by ProTx-I, X. laevis vs X. borealis",[9],Comparable levels of inhibition between species
"GTACSCGNSKGIYWFYRPSCPTDRGYTGSCRYFLGTCCTPAD (disulfide 4-37, 6-30, 20-38) [APETx2]",IC50,[10]; X. borealis oocytes,0.0511 µM
same,IC50,[10]; X. laevis oocytes,0.0647 µM
